Two molecules from patent US11617748B2, “Meclozine derivatives and diclazuril derivatives for use in the prevention and/or the treatment of disorders associated to the inflammation induced by P. acnes” (priority 2016, dated 2023) can be followed below.

Test [1] has as its system P. acnes-induced ear inflammation. Nature of the test: In vivo model of P. acnes-induced inflammation in mouse ears. Particulars: mice; for decrease of the ear inflammation: topical, each day for 3 days, score over 96 h. On the procedure: This model is based on the capacity of mouse ears to react while P. acnes is intradermally injected. The inflammatory reaction is evaluated each day over a period of 4 days after P. acnes injection by measuring the thickness of the ears, the redness as well as the presence of a desquamation and/or small pustules. At the end of the experiment, final measurement of inflammation was realized and photographic pictures of ears were taken. Then, mice were euthanized and ears were immediately fixed in a formalin-containing buffer for a future histological analysis. The experimental design consisted of 3 groups containing 10 mice each. 1) PBS corresponds to the non-treated group injected with PBS. 2) PA+Vehicle TOPIC corresponds to P. acnes injected in ears treated with Vaseline alone. 3) PA+diclazuril corresponds to P. acnes injected in ears treated with 1.3% diclazuril mixed with Vaseline. The preparation of the 1.3% diclazuril gel consisted of extemporaneously gently mixing 6.5 mg of diclazuril with […] for 1 min at room temperature (21° C.) and then directly applied to the mouse ears. This model is based on the capacity of mouse ears to react while P. acnes is intradermally injected. The inflammatory reaction is evaluated each day over a period of 4 days after P. acnes injection by measuring the thickness of the ears, the redness as well as the presence of a desquamation and/or small pustules. At the end of the experiment, final measurement of inflammation was realized and photographic pictures of ears were taken. Then, mice were euthanized and ears were immediately fixed in a formalin-containing buffer for a future histological analysis.

The test system of a further test is IL-1β mRNA. Briefly: RT-qPCR of P. acnes-induced IL-1β mRNA in ThP-1 cells. The format is cell-based, human. The settings on record: 10 μM, 24 h pre-treatment, 5 h P. acnes. For orientation: Quantitative PCR measures a nucleic acid by following its amplification.
Another test relates to hBD-2 production. Briefly: hBD-2 production by M5-stimulated NHDK, in vitro psoriasis-like model (ELISA). The format is cell-based, human. Particulars: NHDK + M5, 48 h. On the procedure: Cell culture, pretreatment and stimulation.
(§1) ELISA. Human IL-1β, IL-8, hBD-2 and TNF-α protein concentration were measured in the supernatants of stimulated cells using various ELISA Sets (all from Ready-Set-Go from eBioscience, except hBD-2 measurements: Human DEFB4A/BD-2 ELISA Kit from LSBio) according to the manufacturer's instructions. We used serial dilutions of recombinant human IL-1β, IL-8, hBD-2 and TNF-α for standard curve. The optical density was determined at 450 nm at a wavelength correction of 540 nm.
On the technique in general: ELISA stands for enzyme-linked immunosorbent assay.

A further test has as its system ICAM-1. Nature of the test: Western blot of ICAM-1 expression in P. acnes-stimulated HaCaT cells. The settings on record: 25 μM, 24 h pre-treatment. The format is cell-based, human. On the procedure: (§2) Western Blot analysis. Whole cell protein extracts (25 μg) were separated by electrophoresis (LDS-PAGE) under denaturing conditions with NuPAGE Novex 4-12% Bis-Tris gel (1 mm, 12 wells, Invitrogen, UK) and proteins were transferred onto nitrocellulose membranes and saturated in 20 ml of saturation buffer consisting of TBS 1× (Tris Buffered Saline) containing 200 mM Tris, 1.4 M NaCl (pH 7.6), 5% no fat milk, 0.1% Tween 20 for 1 h. […] After washing to remove unbound antibodies, bound primary antibodies were detected by incubation for 1 h using secondary antibody against rabbit- and mouse IgG (Santa Cruz Biotechnology, SC-2357, 1:5000 and SC-2005, 1:5000, respectively). Unbound material was removed by washing and peroxidase activity was detected in a chemiluminescence assay (WesternBright ECL, Advansta, Menlo Park, USA). […]
On the technique in general: In western blotting, separated proteins are transferred to a membrane and probed.

Another test deals with TNF-α production. Briefly: TNF-α production by the monocytic cell line. The class given is cell-based, human. Particulars: data not shown. On the procedure: as §1
Both molecules, were tested to inhibit the production of IL-1β by the monocytic cell line. ThP-1 cells were pretreated with diclazuril and meclozine, at the concentrations ranging from 0.39 to 50 μM, for 24 h and then stimulated with P. acnes suspension as described in Materials and Methods. The production of IL-1β was measured on culture supernatant by ELISA and the viability of cells was estimated by MTT assay (FIG. 2).

The next test relates to IκB. Briefly: Western blot of IκB / p-IκB in P. acnes-stimulated HaCaT cells. The format is cell-based, human. The settings on record: 24 h pre-treatment; for degradation of p-IκB: 25 μM, P. acnes 30 min-24 h. On the procedure:
Western Blot analysis. Whole cell protein extracts (25 μg) were separated by electrophoresis (LDS-PAGE) under denaturing conditions with NuPAGE Novex 4-12% Bis-Tris gel (1 mm, 12 wells, Invitrogen, UK) and proteins were transferred onto nitrocellulose membranes and saturated in 20 ml of saturation buffer consisting of TBS 1× (Tris Buffered Saline) containing 200 mM Tris, 1.4 M NaCl (pH 7.6), 5% no fat milk, 0.1% Tween 20 for 1 h. After washing three times for 15 min with 15 ml of TBS/T buffer [1×TBS, 0.1% Tween-20], membranes were incubated overnight with gentle mixing at 4° C. with 10 ml of rabbit polyclonal primary antibodies against human ICAM-1 (SC-7891, 1:500), PPARα (SC-398394, 1:250), PPARβ (SC-74517, 1:200), PPARγ (SC-7196, 1:500), IκB (SC-371, 1:500), p-IκB (SC-7977, 1:500), Cox-2 (SC-7951, 1:250), p-mTOR (CS, Ref 2974, 1:1000), mTOR (CS, Ref 2972, 1:1000), p-p38 (SC-17852, 1:500), p38 (SC-535, 1:250), ERK (SC-94, 1:500), JNK (SC-571, 1:500), and mouse monoclonal primary antibodies against human p-PI3 kinase (CS, Ref 4228, 1:250), PI3 kinase (CS, Ref 4257, 1:250), p-Akt1/2/3 (SC-81433, 1:500), p-ERK (SC-7383, 1:500), p-JNK (SC-6254, 1:500), -actin used to control loading, (SC-47778, 1:1000) diluted in TBS/T supplemented with 5% BSA (antibodies were purchased from Santa Cruz Biotechnology, Inc., Santa Cruz, Calif., USA abbreviated SC; and from Cell Signaling Technology, Inc. Leiden, The Netherlands abbreviated CS above). After washing to remove unbound antibodies, bound primary antibodies were detected by incubation for 1 h using secondary antibody against rabbit- and mouse IgG (Santa Cruz Biotechnology, SC-2357, 1:5000 and SC-2005, 1:5000, respectively). Unbound material was removed by washing and peroxidase activity was detected in a chemiluminescence assay (WesternBright ECL, Advansta, Menlo Park, USA).
The molecular basis for the inhibition of IL-8 production by diclazuril and meclozine has been investigated, in particular it has been evaluated if they interfered with signaling pathways known to be activated when keratinocytes are stimulated with P. acnes. […]

The next test relates to Akt. Briefly: Western blot of p-Akt/Akt in P. acnes-stimulated HaCaT cells. The format is cell-based, human. The settings on record: 25 μM, 24 h pre-treatment. On the procedure:
as §2

[2] abbreviates: 1% meclozine gel topical, vs PA+Vehicle.

Protocol for IL-1β mRNA: RT-qPCR assay. […] Total RNA was isolated using the NucleoSpin RNA and treated with DNAse I, according to the manufacturer's instructions (Macherey-Nagel, Hoerdt, France). RNA concentration was determined at 260 nm on a nanodrop (Labtech, France) and the ratios for all samples were ranging between 1.6 and 1.9. Complementary DNA were generated from 100 ng of total RNA at 50° C. for 10 min followed by the quantitative PCR analysis, carried out in the LightCycler Nano (Roche), and performed with the iTaq Universal SYBR Green One-Step kit (Bio-Rad Laboratories, Hercules, Calif., USA) with a 2-step cycles conditions set at 95° C. for 60 s followed by 40 cycles of 95° C. for 15 s, 68° C. for 60 s, and ended by a melting curve at 65-95° C., 60 s with 0.1° C./s. From the amplification curves, the threshold cycles (Ct) are determined for the studied genes. The amount of relative RNA in stimulated cells relative to control cells is calculated according to the method of 2Act and expressed as a relative fold change expression normalized to gene expression of internal control (GAPDH). IL-8 primers were used: sens 5′-[sequence]-3′, anti-sens 5′-[sequence]-3′ and GAPDH primers: sens 5′-[sequence]-3′, GADPH anti-sens 5′-[sequence]-3′. Sample quantification was made in triplicate.
Controls experiments were done with unpretreated/unstimulated cell and with P. acnes stimulated cells only.

Take `N#CC(c1ccc(Cl)cc1)c1c(Cl)cc(-n2ncc(=O)[nH]c2=O)cc1Cl` (centres unmarked) [diclazuril, Diclazuril]: the “decrease of the ear inflammation” value in test [1] (1.3% diclazuril in Vaseline) came out at 37%. In the test with IL-1β mRNA, the “inhibition of IL-1β mRNA production” value is listed as “up to 91%”. Further, the “decrease of hBD-2 production” value with hBD-2 production (at 12.5 μM) was determined as 68%. Moreover, in the test on ICAM-1, the “P. acnes-induced ICAM-1 expression” value is recorded as “no effect”. Further, in the test with TNF-α production, the “inhibition of TNF-α production” value was “no effect”. In addition, the “degradation of IκB” value in the test with IκB (10 μM, P. acnes 15-180 min) is recorded as “did not prevented the degradation of IκB”. For the same molecule, the “degradation of p-IκB” value in the test with IκB is given as “did not alter the degradation of p-IκB”. Further, in the test on Akt, the “phosphorylation of Akt induced by P. acnes” value is “prevented the phosphorylation”.
With `Cc1cccc(CN2CCN(C(c3ccccc3)c3ccc(Cl)cc3)CC2)c1` (centres unmarked) [meclozine, Meclozine], the “decrease of the ear inflammation” value in test [1] (1% meclozine gel (Vaseline, DMSO, Solutol/water)) was 29.5%. Besides, in test [1] (setting [2]), the “ear thickness (histological analysis)” value is “decrease” and the “leukocyte infiltration (histological analysis)” value is “decrease”. Besides, the “inhibition of IL-1β mRNA production” value with IL-1β mRNA is on record as no more than 38%. The “effect on hBD-2 production, in words” value with hBD-2 production (0.39 to 12.5 μM) was “no effect”. The “P. acnes-induced ICAM-1 expression” value with ICAM-1 is listed as “decreased its expression”. Further, in the test with TNF-α production, the “inhibition of TNF-α production” value is on record as “no effect”. The “degradation of p-IκB” value with IκB is “did not alter the degradation of p-IκB”. Moreover, in the test with Akt, the “phosphorylation of Akt induced by P. acnes” value was “prevented the phosphorylation”.
